Values of other authors, collected in US20060057232A1, “Method of altering age perception” (priority 2004, published 2006).

System: sensitivity of observers to light
Conditions: (26)

**Q.** For `c1ccncc1` [pyridine], which “effect on sensitivity of observers to light” value is on record?
**A.** increase sensitivity of observers to light
